# Reference: patent US10610563B2, “Use of ubiquitin-proteasome system inhibitors for treatment of tumors associated with neurofibromatosis type-2” (BIOXCEL CORPORATION, priority 2014, dated 2020)
# What was measured:
# Caspase 3/7 [1] = assay: Caspase 3/7 activity (Caspase-Glo 3/7) in control haploid cells; conditions: 18 hrs
# Caspase 3/7 [2] = assay: Caspase 3/7 activity (Caspase-Glo 3/7) in NF2 knockout cell line; conditions: 18 hrs
# [3] = tested on: wild type haploid (HAP1) cells; assay: Cell proliferation/cytotoxicity assay (MTS / CellTitre Blue) in control HAP1 cell line
# in vitro = conditions: human, wild type haploid (HAP1) cells
# 20S proteasome [4] = biological target: T1, 20S proteasome (Homo sapiens, UniProt P28074); assay: 20S proteasome activity (chymotrypsin-like, Suc-LLVY-AMC) in wild type haploid (HAP1) cells; type: cell-based; conditions: concentration dependent manner; 18 hrs
# Description: (§1) The cells were then washed in PBS (Phosphate buffered saline) and lysed in a buffer containing non-ionic detergent and ATP. The cell lysate was centrifuged at 15,000 g for 30 minutes at 4° C. The supernatant was collected, aliquoted and stored at −80° C. until assay. Chymotrypsin-like peptidase activity of 20S proteasome was measured by using 40 μM Succinyl-Leu-Leu-Val-Tyr-AMC (Boston Biochem: S-280), a fluorogenic peptide substrate, along with 12 nM of recombinant PA28α (Boston Biochem: E-381 or R&D Systems Cat. # E-381-100), in an assay buffer containing 20 mM HEPES pH 7.4 and 0.5 mM EDTA. 20S proteasome cleaved the peptide substrate to release the free fluorophore AMC. […] The compound carfilzomib was used as an internal control for the assay (NF2 cells treated with carfilzomib). Similar assay was also performed with the wild type haploid (HAP1) cells for 18 hrs at different bortezomib concentrations ranging from 1 nM to 300 nM (i.e. 1 nM, 3 nM, 10 nM, 30 nM, 100 nM and 300 nM). The reaction was monitored by measuring the fluorescence through Flex Station 3 (Molecular Devices) or Envision (PerkinElmer) (excitation/emission: 353/442 nm), for 1 hour a 37° C. under kinetic setting. Substrate turnover was estimated as a standard curve generated using standard AMC. The results of 20S proteasome assay are described in FIGS. 1, 2, 3, 4 & 5.
# 20S proteasome [5] = biological target: T1, 20S proteasome; assay: 20S proteasome activity (chymotrypsin-like, Suc-LLVY-AMC) in NF2 knockout cells; type: cell-based
# Description: as §1
# LATS1 = assay: Western blot analysis for LATS1 protein in NF2 knockout cell line; type: cell-based; conditions: 3, 10 & 30 nM at 18 hrs; compared to cells not treated
# Description: Cells from NF2 knockout cell line 1293-1 cells control Haploid cell line (control wild type cells) are seeded in 6 well plates. […] LATS1 protein was assayed by Western blot (Chemiluminescence) method and both NF2 cell lines are used in the analysis. […] Cell lysates were analysed by western blotting and LATS1 was detected using anti-lats1 antibody (Abcam, ab70561); GAPDH protein levels were assayed using anti-GAPDH antibody as endogenous control. The objective was to quantify the up-regulation/down-regulation of proteins (LATS1) involved in Hippo signaling pathway in NF2 knockout cell line compared to the control cell line. Another objective is to observe the effect of bortezomib treatment in the NF2 knockout cell line, following assays using the Western Blot/WES System.
# [6] = tested on: NF2 knockout cell line 1293-1; assay: Cell proliferation/cytotoxicity assay (MTS / CellTitre Blue) in NF2 knockout cell line
# mesothelioma = assay: Treatment of mesothelioma patients carrying mutations in NF2 or BAP1 genes; type: in vivo; conditions: mesothelioma patients with NF2 or BAP1 mutation; 1.3 mg/m^2 intravenous bolus twice in a week, 21-d cycle, up to eight cycles
# Description: Mesothelioma patients can be screened for mutation(s) in any of these genes by molecular genetic testing, which is done by the mutation scanning and gene duplication/deletion testing. For example, mutation scanning is done by polymerase chain reaction amplification of the DNA of patients compared to control DNA, and DNA with altered DNA segments may be subjected to the further testing, such as sequence analysis to identify the sequence alterations. Gene duplication/deletion testing is done by quantitative polymerase chain reaction, long-range polymerase chain reaction, multiplex ligation-dependent probe amplification (MLPA), and chromosomal microarray (CMA) that includes the gene/chromosome segment for detection. Molecular genetic testing confirms about the mutation in the NF2 gene or that in the BAP1 gene. […] Bortezomib at a dose of 1.3 mg/m^2 via intravenous bolus for 3 to 5 seconds is given to patients, twice in a week for at least 2 weeks (days 1, 4, 8 and 11) of a 21-d cycle for up to eight cycles.
# [7] = 0.1 nM to 100 nM, 6 hrs and 12 hrs
smiles,measurement,setting,value
CN[C@@H]1C[C@H]2O[C@@](C)([C@@H]1OC)n1c3ccccc3c3c4c(c5c6ccccc6n2c5c31)C(=O)NC4 [Staurosporine],"apoptosis in the Caspase 3/7 assay, positive reference control, wild type haploid cell line",Caspase 3/7 [1]; Staurosporine 1 & 10 μM,induced apoptosis was also observed
same,"apoptosis in the Caspase 3/7 assay, positive reference control, NF2 knockout cell line",Caspase 3/7 [2]; Staurosporine 1 & 10 μM,induced apoptosis was also observed
"CC(C)C[C@H](NC(=O)[C@H](Cc1ccccc1)NC(=O)c1cnccn1)B(O)O [bortezomib, [(1R)-3-methyl-1-({(2S)-3-phenyl-2[(pyrazin-2-ylcarbonyl)amino]propanoyl}amino)butyl]boronic acid]",toxicity in the wild type haploid (HAP1) cell line (in words),[3]; 6 hrs,did not show any significant toxicity
same,toxicity in the wild type haploid (HAP1) cell line (in words),"[3]; higher concentration (>30 nM), 12, 18 & 24 hrs",toxicity was observed
same,"cytotoxicity at 6 h, 0.1 nM",in vitro,2.64%
same,"cytotoxicity at 6 h, 0.3 nM",in vitro,4.7%
same,"cytotoxicity at 6 h, 1 nM",in vitro,5.65%
same,"cytotoxicity at 6 h, 3 nM",in vitro,1.58%
same,"cytotoxicity at 6 h, 10 nM",in vitro,0.99%
same,"cytotoxicity at 6 h, 30 nM",in vitro,7.63%
same,"cytotoxicity at 6 h, 60 nM",in vitro,9.63%
same,"cytotoxicity at 6 h, 100 nM",in vitro,6.08%
same,"cytotoxicity at 12 h, 0.1 nM",in vitro,3.91%
same,"cytotoxicity at 12 h, 0.3 nM",in vitro,2.62%
same,"cytotoxicity at 12 h, 1 nM",in vitro,0.2%
same,"cytotoxicity at 12 h, 3 nM",in vitro,1.1%
same,"cytotoxicity at 12 h, 10 nM",in vitro,5.12%
same,"cytotoxicity at 12 h, 30 nM",in vitro,24.9%
same,"cytotoxicity at 12 h, 60 nM",in vitro,31.9%
same,"cytotoxicity at 12 h, 100 nM",in vitro,26.9%
same,"cytotoxicity at 18 h, 0.1 nM",in vitro,6.83%
same,"cytotoxicity at 18 h, 0.3 nM",in vitro,6.9%
same,"cytotoxicity at 18 h, 1 nM",in vitro,5.78%
same,"cytotoxicity at 18 h, 3 nM",in vitro,7.83%
same,"cytotoxicity at 18 h, 10 nM",in vitro,7.56%
same,"cytotoxicity at 18 h, 30 nM",in vitro,26.3%
same,"cytotoxicity at 18 h, 60 nM",in vitro,31%
same,"cytotoxicity at 18 h, 100 nM",in vitro,32.7%
same,"cytotoxicity at 24 h, 0.1 nM",in vitro,11.2%
same,"cytotoxicity at 24 h, 0.3 nM",in vitro,11.4%
same,"cytotoxicity at 24 h, 1 nM",in vitro,10.9%
same,"cytotoxicity at 24 h, 3 nM",in vitro,16.6%
same,"cytotoxicity at 24 h, 10 nM",in vitro,44.8%
same,"cytotoxicity at 24 h, 30 nM",in vitro,75%
same,"cytotoxicity at 24 h, 60 nM",in vitro,77.4%
same,"cytotoxicity at 24 h, 100 nM",in vitro,78.9%
same,proteasome activity in the wild type haploid cell line,20S proteasome [4],showed inhibition in proteasome activity
same,apoptosis/Caspase 3/7 activation in the control haploid cells,"Caspase 3/7 [1]; 3 nM onwards, compared to NF2 knockout cell line",minimal increase in apoptosis/Caspase 3/7 activation
same,proteasome activity in the NF2 knockout cell line (dose dependence),20S proteasome [5]; 1 nM to 300 nM,dose dependent decrease in proteasome activity
same,proteasome activity in the NF2 knockout cell line,"20S proteasome [5]; from 3 nM onwards, post 6 hrs, 12 hrs, 18 hrs and 24 hrs incubation",decreased significantly
same,"comparison of % inhibition in proteasome activity, NF2 knockout cells vs wild type haploid cells",20S proteasome [5]; post 18 hrs incubation (FIG. 5),greater inhibition in the NF2 knockout cells
same,caspase activity (apoptosis) in the NF2 knockout cell line,Caspase 3/7 [2]; 3 nM onwards,significant increase in the caspase activity
same,levels of LATS1 protein in NF2 knockout cell line (Western blot),LATS1,increased levels of LATS1
same,cytotoxicity in the NF2 knockout cell line,[6]; [7],10-15%
same,cytotoxicity in the NF2 knockout cell line (in words),[6]; [7],do not show any significant cytotoxicity
same,Average % Cytotoxicity in the NF2 knockout cells,"[6]; bortezomib 0.1 nM, 6 hrs",−5.18%
same,Average % Cytotoxicity in the NF2 knockout cells,"[6]; bortezomib 0.1 nM, 12 hrs",−21.57%
same,Average % Cytotoxicity in the NF2 knockout cells,"[6]; bortezomib 0.1 nM, 18 hrs",−16.92%
same,Average % Cytotoxicity in the NF2 knockout cells,"[6]; bortezomib 0.1 nM, 24 hrs",−63.43%
same,Average % Cytotoxicity in the NF2 knockout cells,"[6]; bortezomib 0.3 nM, 6 hrs",−5.03%
same,Average % Cytotoxicity in the NF2 knockout cells,"[6]; bortezomib 0.3 nM, 12 hrs",−32.20%
same,Average % Cytotoxicity in the NF2 knockout cells,"[6]; bortezomib 0.3 nM, 18 hrs",−26.59%
same,Average % Cytotoxicity in the NF2 knockout cells,"[6]; bortezomib 0.3 nM, 24 hrs",−71.10%
same,Average % Cytotoxicity in the NF2 knockout cells,"[6]; bortezomib 1 nM, 6 hrs",−1.49%
same,Average % Cytotoxicity in the NF2 knockout cells,"[6]; bortezomib 1 nM, 12 hrs",−28.42%
same,Average % Cytotoxicity in the NF2 knockout cells,"[6]; bortezomib 1 nM, 18 hrs",−25.10%
same,Average % Cytotoxicity in the NF2 knockout cells,"[6]; bortezomib 1 nM, 24 hrs",−66.58%
same,Average % Cytotoxicity in the NF2 knockout cells,"[6]; bortezomib 3 nM, 6 hrs",−0.78%
same,Average % Cytotoxicity in the NF2 knockout cells,"[6]; bortezomib 3 nM, 12 hrs",−24.79%
same,Average % Cytotoxicity in the NF2 knockout cells,"[6]; bortezomib 3 nM, 18 hrs",−19.23%
same,Average % Cytotoxicity in the NF2 knockout cells,"[6]; bortezomib 3 nM, 24 hrs",−68.56%
same,Average % Cytotoxicity in the NF2 knockout cells,"[6]; bortezomib 10 nM, 6 hrs",8.10%
same,Average % Cytotoxicity in the NF2 knockout cells,"[6]; bortezomib 10 nM, 12 hrs",−11.84%
same,Average % Cytotoxicity in the NF2 knockout cells,"[6]; bortezomib 10 nM, 18 hrs",14.52%
same,Average % Cytotoxicity in the NF2 knockout cells,"[6]; bortezomib 10 nM, 24 hrs",29.86%
same,Average % Cytotoxicity in the NF2 knockout cells,"[6]; bortezomib 30 nM, 6 hrs",14.05%
same,Average % Cytotoxicity in the NF2 knockout cells,"[6]; bortezomib 30 nM, 12 hrs",17.18%
same,Average % Cytotoxicity in the NF2 knockout cells,"[6]; bortezomib 30 nM, 18 hrs",35.71%
same,Average % Cytotoxicity in the NF2 knockout cells,"[6]; bortezomib 30 nM, 24 hrs",37.83%
same,Average % Cytotoxicity in the NF2 knockout cells,"[6]; bortezomib 60 nM, 6 hrs",16.44%
same,Average % Cytotoxicity in the NF2 knockout cells,"[6]; bortezomib 60 nM, 12 hrs",16.07%
same,Average % Cytotoxicity in the NF2 knockout cells,"[6]; bortezomib 60 nM, 18 hrs",38.70%
same,Average % Cytotoxicity in the NF2 knockout cells,"[6]; bortezomib 60 nM, 24 hrs",43.98%
same,Average % Cytotoxicity in the NF2 knockout cells,"[6]; bortezomib 100 nM, 6 hrs",10.89%
same,Average % Cytotoxicity in the NF2 knockout cells,"[6]; bortezomib 100 nM, 12 hrs",15.71%
same,Average % Cytotoxicity in the NF2 knockout cells,"[6]; bortezomib 100 nM, 18 hrs",39.72%
same,Average % Cytotoxicity in the NF2 knockout cells,"[6]; bortezomib 100 nM, 24 hrs",45.16%
same,toxicity in the NF2 knockout cell line (in words),"[6]; higher concentration (>30 nM), 18 hrs and 24 hrs",slight toxicity was observed
same,delay in tumor progression,mesothelioma,50%
same,reduction in tumor size,mesothelioma,25%
